Measurements reported in the NIST ThermoML archive (doi:10.1016/j.jct.2016.03.030).

Assay: molar heat capacity at constant pressure; xn = mol fraction of the nth substance listed
Conditions: 100 kPa, Liquid, Small sample (50 mg) DSC

CCCC[N+]1(C)CCOCC1.[Br-] [4-butyl-4-methylmorpholinium bromide] + O
molar heat capacity at constant pressure [J/K/mol]
Conditions | 298.15 K | 303.15 K | 308.15 K | 313.15 K | 318.15 K | 323.15 K | 328.15 K | 333.15 K | 338.15 K | 343.15 K
x1 = 0.0363 | 87.85 | 87.9 | 88.24 | 88.5 | 88.76 | 89.02 | 89.23 | 89.41 | 89.57 | 89.8
x1 = 0.0601 | 94.21 | 94.49 | 95.08 | 95.61 | 96.11 | 96.14 | 96.74 | 97.08 | 97.24 | 97.27
x1 = 0.1242 | 111.81 | 112.44 | 113.49 | 114.39 | 115.3 | 116.21 | 117.02 | 117.79 | 118.61 | 119.34
x1 = 0.2383 | 149.98 | 150.75 | 152.16 | 153.36 | 154.56 | 155.82 | 156.95 | 158.08 | 159.21 | 160.26
x1 = 0.2569 | 154.14 | 155.11 | 156.45 | 157.64 | 158.76 | 160.03 | 161.22 | 162.27 | 163.39 | 164.51
x1 = 0.3007 | 165.4 | 166.24 | 167.67 | 168.93 | 170.11 | 171.54 | 172.72 | 173.82 | 175 | 176.09

CCCCC[N+]1(C)CCOCC1.[Br-] [4-methyl-4-pentylmorpholinium bromide] + O
molar heat capacity at constant pressure [J/K/mol]
Conditions | 298.15 K | 303.15 K | 308.15 K | 313.15 K | 318.15 K | 323.15 K | 328.15 K | 333.15 K | 338.15 K | 343.15 K
x1 = 0.0316 | 94.11 | 94.16 | 94.44 | 94.72 | 94.98 | 95.31 | 95.54 | 95.76 | 95.94 | 96.1
x1 = 0.0695 | 105.99 | 106.33 | 106.88 | 107.4 | 107.91 | 108.43 | 108.87 | 109.28 | 109.73 | 110.14
x1 = 0.1522 | 133.02 | 133.71 | 134.95 | 135.91 | 136.93 | 138.01 | 138.86 | 139.78 | 140.69 | 141.55
x1 = 0.2054 | 153.72 | 154.58 | 156.03 | 157.22 | 158.41 | 159.6 | 160.73 | 161.92 | 163.04 | 164.03
x1 = 0.219 | 149.69 | 150.59 | 151.97 | 153.29 | 154.54 | 155.79 | 156.96 | 158 | 159.04 | 160.08
x1 = 0.2438 | 159.53 | 160.5 | 161.93 | 163.21 | 164.56 | 165.91 | 167.26 | 168.39 | 169.59 | 170.72
x1 = 0.2754 | 165.68 | 166.67 | 168.15 | 169.64 | 170.96 | 172.28 | 173.51 | 174.92 | 176.15 | 177.39

CCC[N+]1(C)CCOCC1.[Br-] [4-methyl-4-propylmorpholinium bromide] + O
molar heat capacity at constant pressure [J/K/mol]
Conditions | 298.15 K | 303.15 K | 308.15 K | 313.15 K | 318.15 K | 323.15 K | 328.15 K | 333.15 K | 338.15 K | 343.15 K
x1 = 0.0336 | 82.58 | 82.9 | 83.23 | 83.53 | 83.78 | 84.05 | 84.28 | 84.5 | 84.72 | 84.95
x1 = 0.0618 | 89.62 | 89.92 | 90.54 | 91.03 | 91.49 | 92.05 | 92.45 | 92.91 | 93.25 | 93.65
x1 = 0.1298 | 107.63 | 108.21 | 109.1 | 110 | 110.81 | 111.61 | 112.42 | 113.09 | 113.81 | 114.43
x1 = 0.2036 | 125.06 | 125.72 | 126.8 | 127.7 | 128.6 | 129.5 | 130.16 | 130.58 | 130.94 | 131.12
x1 = 0.2742 | 132.6 | 133.19 | 134.31 | 135.28 | 136.1 | 137.14 | 137.89 | 138.56 | 139.23 | 140.05
x1 = 0.3025 | 146.99 | 147.64 | 148.84 | 149.81 | 150.85 | 151.81 | 152.7 | 153.5 | 154.39 | 155.03
